# Measurements: PMC6032158, “Structure–Activity Relationship of Piplartine and Synthetic Analogues against Schistosoma mansoni and Cytotoxicity to Mammalian Cells” (International Journal of Molecular Sciences, 2018)
# Entries after “also recorded” stand apart in the source; their conditions may differ.
# Experiments:
# [1] = tested on: J774A.1 cells; test: Cell death mechanism, annexin-V FITC / propidium iodide staining by flow cytometry; type: cell-based, mouse; conditions: J774A.1, 24 h; piplartine 25 μg/mL, 14B 400 μg/mL
# Description: Cells were then treated with 2 µL of annexin-V FITC (Apoptosis Detection Kit; BD Biosciences, Franklin Lakes, NJ, USA) and 2 µL of propidium iodide (PI, 50 µg/mL) for 15 min in the dark at room temperature. Next, 100 µL binding buffer was added and samples were analysed by flow cytometry (BD LSFortessa^TM, Franklin Lakes, NJ, USA). A total of 20,000 events were collected per sample.
# [2] = tested on: murine fibroblast (NIH-3T3) cells; test: MTT cytotoxicity assay in murine fibroblasts; type: cell-based
# Procedure, shortened: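 NIH-3T3 cells exposed 24 h to samples at 25–800 µg/mL in 3% DMSO, with 3% DMSO as control. MTT (5 mg/mL stock) added for 2 h, formazan dissolved in DMSO, absorbance read at 595 nm.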
# [3] = tested on: 49-day-old S. mansoni adult worms; test: In vitro experiments with adult worms of S. mansoni (mortality, motor activity); type: cell-based, Schistosoma mansoni; conditions: for Dead Worms (%) F / Motor Activity Reduction (%) Significant F / Motor Activity Reduction (%) Slight F: female worms; for Dead Worms (%) M / Motor Activity Reduction (%) Significant M / Motor Activity Reduction (%) Slight M: male worms
# Procedure, shortened: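 BH-strain worm pairs recovered from hamsters 49 days post-infection, washed in RPMI 1640 with penicillin, streptomycin and amphotericin B, and cultured as mated pairs with or without drug for 96 h. Motor activity changes and death were scored by microscopy.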
structure (smiles),measurement,setting,value
O=C(/C=C/c1ccc2c(c1)OCO2)N1CCCC1 [Compound 14B],annexin-V FITC staining (apoptosis marker) vs DMEM negative control (in words),[1],significant (p < 0.05) increase in annexin-V FITC staining
same,effect on NIH-3T3 cell viability (in words),"[2]; MTT, 24 h exposure, 25 to 800 µg/mL","considerable reduction in cell viability at concentrations of 400 and 800 μg/mL; also recorded: showed toxicity at 200, 400 and 800 μg/mL"
same,Emax at 800 µg/mL,"[2]; Mus musculus, NIH3T3, 24 h, decrease in cell viability at the maximum concentration tested (800 μg/mL), NIH-3T3, 24 h",83.64 ± 0.47%
same,Dead Worms (%) F,"[3]; 5 µM, 24 h",0%
same,Motor Activity Reduction (%) Significant F,"[3]; 5 µM, 24 h",0%
same,Motor Activity Reduction (%) Slight F,"[3]; 5 µM, 24 h",0%
same,Dead Worms (%) M,"[3]; 5 µM, 24 h",0%
same,Motor Activity Reduction (%) Significant M,"[3]; 5 µM, 24 h",0%
same,Motor Activity Reduction (%) Slight M,"[3]; 5 µM, 24 h",0%
same,Dead Worms (%) F,"[3]; 5 µM, 48 h",0%
same,Motor Activity Reduction (%) Significant F,"[3]; 5 µM, 48 h",0%
same,Motor Activity Reduction (%) Slight F,"[3]; 5 µM, 48 h",0%
same,Dead Worms (%) M,"[3]; 5 µM, 48 h",0%
same,Motor Activity Reduction (%) Significant M,"[3]; 5 µM, 48 h",0%
same,Motor Activity Reduction (%) Slight M,"[3]; 5 µM, 48 h",0%
same,Dead Worms (%) F,"[3]; 5 µM, 72 h",0%
same,Motor Activity Reduction (%) Significant F,"[3]; 5 µM, 72 h",0%
same,Motor Activity Reduction (%) Slight F,"[3]; 5 µM, 72 h",0%
same,Dead Worms (%) M,"[3]; 5 µM, 72 h",0%
same,Motor Activity Reduction (%) Significant M,"[3]; 5 µM, 72 h",0%
same,Motor Activity Reduction (%) Slight M,"[3]; 5 µM, 72 h",0%
same,Dead Worms (%) F,"[3]; 5 µM, 96 h",0%
same,Motor Activity Reduction (%) Significant F,"[3]; 5 µM, 96 h",0%
same,Motor Activity Reduction (%) Slight F,"[3]; 5 µM, 96 h",0%
same,Dead Worms (%) M,"[3]; 5 µM, 96 h",0%
same,Motor Activity Reduction (%) Significant M,"[3]; 5 µM, 96 h",0%
same,Motor Activity Reduction (%) Slight M,"[3]; 5 µM, 96 h",0%
same,Dead Worms (%) F,"[3]; 10 µM, 24 h",0%
same,Motor Activity Reduction (%) Significant F,"[3]; 10 µM, 24 h",0%
same,Motor Activity Reduction (%) Slight F,"[3]; 10 µM, 24 h",0%
same,Dead Worms (%) M,"[3]; 10 µM, 24 h",0%
same,Motor Activity Reduction (%) Significant M,"[3]; 10 µM, 24 h",0%
same,Motor Activity Reduction (%) Slight M,"[3]; 10 µM, 24 h",0%
same,Dead Worms (%) F,"[3]; 10 µM, 48 h",0%
same,Motor Activity Reduction (%) Significant F,"[3]; 10 µM, 48 h",0%
same,Motor Activity Reduction (%) Slight F,"[3]; 10 µM, 48 h",0%
same,Dead Worms (%) M,"[3]; 10 µM, 48 h",0%
same,Motor Activity Reduction (%) Significant M,"[3]; 10 µM, 48 h",0%
same,Motor Activity Reduction (%) Slight M,"[3]; 10 µM, 48 h",0%
same,Dead Worms (%) F,"[3]; 10 µM, 72 h",0%
same,Motor Activity Reduction (%) Significant F,"[3]; 10 µM, 72 h",0%
same,Motor Activity Reduction (%) Slight F,"[3]; 10 µM, 72 h",0%
same,Dead Worms (%) M,"[3]; 10 µM, 72 h",0%
same,Motor Activity Reduction (%) Significant M,"[3]; 10 µM, 72 h",0%
same,Motor Activity Reduction (%) Slight M,"[3]; 10 µM, 72 h",0%
same,Dead Worms (%) F,"[3]; 10 µM, 96 h",0%
same,Motor Activity Reduction (%) Significant F,"[3]; 10 µM, 96 h",0%
same,Motor Activity Reduction (%) Slight F,"[3]; 10 µM, 96 h",0%
same,Dead Worms (%) M,"[3]; 10 µM, 96 h",0%
same,Motor Activity Reduction (%) Significant M,"[3]; 10 µM, 96 h",0%
same,Motor Activity Reduction (%) Slight M,"[3]; 10 µM, 96 h",0%
same,Dead Worms (%) F,"[3]; 25 µM, 24 h",0%
same,Motor Activity Reduction (%) Significant F,"[3]; 25 µM, 24 h",0%
same,Motor Activity Reduction (%) Slight F,"[3]; 25 µM, 24 h",0%
same,Dead Worms (%) M,"[3]; 25 µM, 24 h",0%
same,Motor Activity Reduction (%) Significant M,"[3]; 25 µM, 24 h",0%
same,Motor Activity Reduction (%) Slight M,"[3]; 25 µM, 24 h",0%
same,Dead Worms (%) F,"[3]; 25 µM, 48 h",0%
same,Motor Activity Reduction (%) Significant F,"[3]; 25 µM, 48 h",0%
same,Motor Activity Reduction (%) Slight F,"[3]; 25 µM, 48 h",0%
same,Dead Worms (%) M,"[3]; 25 µM, 48 h",0%
same,Motor Activity Reduction (%) Significant M,"[3]; 25 µM, 48 h",0%
same,Motor Activity Reduction (%) Slight M,"[3]; 25 µM, 48 h",0%
same,Dead Worms (%) F,"[3]; 25 µM, 72 h",0%
same,Motor Activity Reduction (%) Significant F,"[3]; 25 µM, 72 h",0%
same,Motor Activity Reduction (%) Slight F,"[3]; 25 µM, 72 h",0%
same,Dead Worms (%) M,"[3]; 25 µM, 72 h",0%
same,Motor Activity Reduction (%) Significant M,"[3]; 25 µM, 72 h",0%
same,Motor Activity Reduction (%) Slight M,"[3]; 25 µM, 72 h",0%
same,Dead Worms (%) F,"[3]; 25 µM, 96 h",0%
same,Motor Activity Reduction (%) Significant F,"[3]; 25 µM, 96 h",0%
same,Motor Activity Reduction (%) Slight F,"[3]; 25 µM, 96 h",0%
same,Dead Worms (%) M,"[3]; 25 µM, 96 h",0%
same,Motor Activity Reduction (%) Significant M,"[3]; 25 µM, 96 h",0%
same,Motor Activity Reduction (%) Slight M,"[3]; 25 µM, 96 h",0%
same,Dead Worms (%) F,"[3]; 50 µM, 24 h",0%
same,Motor Activity Reduction (%) Significant F,"[3]; 50 µM, 24 h",0%
same,Motor Activity Reduction (%) Slight F,"[3]; 50 µM, 24 h",0%
same,Dead Worms (%) M,"[3]; 50 µM, 24 h",0%
same,Motor Activity Reduction (%) Significant M,"[3]; 50 µM, 24 h",0%
same,Motor Activity Reduction (%) Slight M,"[3]; 50 µM, 24 h",0%
same,Dead Worms (%) F,"[3]; 50 µM, 48 h",0%
same,Motor Activity Reduction (%) Significant F,"[3]; 50 µM, 48 h",0%
same,Motor Activity Reduction (%) Slight F,"[3]; 50 µM, 48 h",0%
same,Dead Worms (%) M,"[3]; 50 µM, 48 h",0%
same,Motor Activity Reduction (%) Significant M,"[3]; 50 µM, 48 h",0%
same,Motor Activity Reduction (%) Slight M,"[3]; 50 µM, 48 h",0%
same,Dead Worms (%) F,"[3]; 50 µM, 72 h",0%
same,Motor Activity Reduction (%) Significant F,"[3]; 50 µM, 72 h",0%
same,Motor Activity Reduction (%) Slight F,"[3]; 50 µM, 72 h",0%
same,Dead Worms (%) M,"[3]; 50 µM, 72 h",0%
same,Motor Activity Reduction (%) Significant M,"[3]; 50 µM, 72 h",0%
same,Motor Activity Reduction (%) Slight M,"[3]; 50 µM, 72 h",0%
same,Dead Worms (%) F,"[3]; 50 µM, 96 h",0%
same,Motor Activity Reduction (%) Significant F,"[3]; 50 µM, 96 h",0%
same,Motor Activity Reduction (%) Slight F,"[3]; 50 µM, 96 h",0%
same,Dead Worms (%) M,"[3]; 50 µM, 96 h",0%
same,Motor Activity Reduction (%) Significant M,"[3]; 50 µM, 96 h",0%
same,Motor Activity Reduction (%) Slight M,"[3]; 50 µM, 96 h",0%
same,activity against S. mansoni adult worms (in words),"[3]; analogues 50, 25, 10 and 5 μM, piplartine 5 and 10 μM, up to 96 h",loss of biological activity against S. mansoni
